Measurements as given in paper PMC10709440, “High-throughput ligand profile characterization in novel cell lines expressing seven heterologous insect olfactory receptors for the detection of volatile plant biomarkers” (Scientific Reports, 2023).
Like-named read-outs stand apart in the source and are kept apart here.

Assays:
Drosophila OR47a = biological target: T1, Drosophila OR47a (Drosophila melanogaster, UniProt P81921); assay: Calcium ion fluorescence (GCaMP6) assay, OR47a stable HEK293 cell line; assay type: cell-based; conditions: for Average response: mean of biological replicates
T1 construct: expressed in transfected cells
T1 sequence (P81921 1-385): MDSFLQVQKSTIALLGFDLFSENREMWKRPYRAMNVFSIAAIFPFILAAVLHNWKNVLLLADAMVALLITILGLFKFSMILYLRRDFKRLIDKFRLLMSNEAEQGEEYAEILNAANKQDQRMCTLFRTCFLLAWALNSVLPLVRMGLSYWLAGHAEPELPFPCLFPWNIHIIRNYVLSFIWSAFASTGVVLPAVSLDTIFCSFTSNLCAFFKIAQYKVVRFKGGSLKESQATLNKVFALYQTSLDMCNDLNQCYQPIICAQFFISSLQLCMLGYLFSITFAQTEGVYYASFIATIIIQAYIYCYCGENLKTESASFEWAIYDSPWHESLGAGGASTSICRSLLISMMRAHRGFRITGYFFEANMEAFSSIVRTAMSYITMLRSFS
T1 sequence (Q9VNB5 1-486 partner): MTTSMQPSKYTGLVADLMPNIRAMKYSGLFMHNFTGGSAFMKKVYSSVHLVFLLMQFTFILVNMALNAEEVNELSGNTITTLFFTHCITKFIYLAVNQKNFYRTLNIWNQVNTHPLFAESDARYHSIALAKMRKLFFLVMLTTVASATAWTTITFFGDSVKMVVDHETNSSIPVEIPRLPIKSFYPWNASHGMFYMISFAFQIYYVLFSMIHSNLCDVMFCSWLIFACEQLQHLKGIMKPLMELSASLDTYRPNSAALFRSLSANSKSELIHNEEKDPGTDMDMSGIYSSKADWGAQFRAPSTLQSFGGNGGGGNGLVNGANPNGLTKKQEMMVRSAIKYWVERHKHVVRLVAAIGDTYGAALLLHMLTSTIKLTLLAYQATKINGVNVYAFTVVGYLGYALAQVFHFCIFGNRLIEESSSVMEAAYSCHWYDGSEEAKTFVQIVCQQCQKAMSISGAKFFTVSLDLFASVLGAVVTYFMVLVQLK
Outline: (§1)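 HEK293 lines stably expressing each Drosophila OR with GCaMP6, doxycycline-induced (1 μg/mL) 48 or 72 h. Fluorescence recorded 5 s baseline then 30 s after VOC injection at pH 7.3; ΔF=(FMAX−F0)/F0, normalized to 50 µM VUAA1 response per line, triplicate wells averaged; concentration series 0.01–100 μM.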

Drosophila OR98a = biological target: T2, Drosophila OR98a (Drosophila melanogaster, UniProt Q9VAZ3); assay: Calcium ion fluorescence (GCaMP6) assay, OR98a stable HEK293 cell line; assay type: cell-based; conditions: for Average response: average of biological replicates, fraction of VUAA1 response
T2 construct: expressed in transfected cells
T2 sequence (Q9VAZ3 1-397): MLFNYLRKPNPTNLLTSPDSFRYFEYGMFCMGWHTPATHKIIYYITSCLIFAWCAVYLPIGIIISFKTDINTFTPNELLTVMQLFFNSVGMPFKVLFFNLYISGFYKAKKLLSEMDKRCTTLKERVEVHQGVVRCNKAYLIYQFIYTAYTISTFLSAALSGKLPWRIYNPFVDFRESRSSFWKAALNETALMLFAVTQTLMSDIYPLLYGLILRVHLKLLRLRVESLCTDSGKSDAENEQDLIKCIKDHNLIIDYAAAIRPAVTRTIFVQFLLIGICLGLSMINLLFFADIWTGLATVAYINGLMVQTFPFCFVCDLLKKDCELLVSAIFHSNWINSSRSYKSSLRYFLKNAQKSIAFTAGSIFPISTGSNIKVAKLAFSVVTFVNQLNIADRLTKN
T2 sequence (Q9VNB5 1-486 partner): T1 sequence (Q9VNB5 1-486 partner)
Outline: as §1

[1] = HEK293, read-out: OR47a Average response (VUAA1-normalized)
[2] = HEK293, read-out: OR47a response (VUAA1-normalized response)
[3] = OR47a cell line, odorant cc. 1 µM
[4] = OR47a cell line, odorant cc. 10 µM
[5] = OR47a cell line, odorant cc. 100 µM
[6] = ligand concentration 1 (unit not given), threshold 0.05, below shown as 0
[7] = ligand concentration 10 (unit not given), threshold 0.05, below shown as 0
[8] = ligand concentration 100 (unit not given), threshold 0.05, below shown as 0
[9] = HEK293, read-out: Average response
[10] = HEK293, read-out: OR98a Average response (VUAA1-normalized)
[11] = HEK293, read-out: OR98a response (VUAA1-normalized response)
[12] = concentration 1, normalized fluorescence change, values below 0.05 threshold given as 0
[13] = concentration 10, normalized fluorescence change, values below 0.05 threshold given as 0
[14] = concentration 100, normalized fluorescence change, values below 0.05 threshold given as 0

| Molecule | activation at 1 µM (Drosophila OR47a; [1]) | activation at 10 µM (Drosophila OR47a; [1]) | activation at 100 µM (Drosophila OR47a; [1]) | activation at 1 µM (Drosophila OR47a; [2]) | activation at 10 µM (Drosophila OR47a; [2]) | activation at 100 µM (Drosophila OR47a; [2]) | Average response (Drosophila OR47a; [3]) | Average response (Drosophila OR47a; [4]) | Average response (Drosophila OR47a; [5]) | DF norm AVERAGE OR47a (Drosophila OR47a; [6]) | DF norm AVERAGE OR47a (Drosophila OR47a; [7]) | DF norm AVERAGE OR47a (Drosophila OR47a; [8]) | activation at 1 µM (Drosophila OR98a; [9]) | activation at 10 µM (Drosophila OR98a; [9]) | activation at 100 µM (Drosophila OR98a; [9]) | activation at 1 µM (Drosophila OR98a; [11]) | activation at 10 µM (Drosophila OR98a; [11]) | activation at 100 µM (Drosophila OR98a; [11]) | DF norm AVERAGE OR98a (Drosophila OR98a; [6]) | DF norm AVERAGE OR98a (Drosophila OR98a; [7]) | also measured |
| --- | --- | --- | --- | --- | --- | --- | --- | --- | --- | --- | --- | --- | --- | --- | --- | --- | --- | --- | --- | --- | --- |
| CCOC(=O)c1ccccc1 [ethyl benzoate] | 5% | 0% | 10% | 0% | 0% | 10% | 0.0468 | 0.00 | 0.10 | 0 | 0 | 0.09883 | 3% | 0% | 20% | 0% | 0% | 20% | 0 | 0 | activation at 1 µM (Drosophila OR98a; [10]): 3%; activation at 10 µM (Drosophila OR98a; [10]): 0%; activation at 100 µM (Drosophila OR98a; [10]): 20%; DF norm AVERAGE OR98a (Drosophila OR98a; [8]): 0.2048 |
| CC1=CCC2C(C1)C2(C)C (stereo not drawn) [3-carene] |  |  |  | 0% | 0% | 0% | 0.00 | 0.00 | 0.03 |  |  |  | 0% | 1.26% | 0% | 0% | 0% | 0% |  |  | DF norm AVERAGE OR47a (Drosophila OR47a; [12]): 0; DF norm AVERAGE OR47a (Drosophila OR47a; [13]): 0; DF norm AVERAGE OR47a (Drosophila OR47a; [14]): 0; DF norm AVERAGE OR98a (Drosophila OR98a; [12]): 0; DF norm AVERAGE OR98a (Drosophila OR98a; [13]): 0; DF norm AVERAGE OR98a (Drosophila OR98a; [14]): 0 |
| (+)-beta-cedrene |  |  |  |  |  |  | 0.00 | 0.00 | 0.00 |  |  |  |  |  |  |  |  |  |  |  | OR47a response (VUAA1-normalized response) (Drosophila OR47a; VOC concentration 1 μM): 0.00; OR47a response (VUAA1-normalized response) (Drosophila OR47a; VOC concentration 10 μM): 0.00; OR47a response (VUAA1-normalized response) (Drosophila OR47a; VOC concentration 100 μM): 0.00; DF norm AVERAGE OR47a (Drosophila OR47a; [12]): 0; DF norm AVERAGE OR47a (Drosophila OR47a; [13]): 0; DF norm AVERAGE OR47a (Drosophila OR47a; [14]): 0; OR98a response (VUAA1-normalized response) (Drosophila OR98a; VOC concentration 1 μM): 0.0855; OR98a response (VUAA1-normalized response) (Drosophila OR98a; VOC concentration 10 μM): 0.06; OR98a response (VUAA1-normalized response) (Drosophila OR98a; VOC concentration 100 μM): 0.06; Average response (Drosophila OR98a; cc. 1 µM, OR98a cell line): 0.0855; Average response (Drosophila OR98a; cc. 10 µM, OR98a cell line): 0.06; Average response (Drosophila OR98a; cc. 100 µM, OR98a cell line): 0.06; DF norm AVERAGE OR98a (Drosophila OR98a; [12]): 0.08554; DF norm AVERAGE OR98a (Drosophila OR98a; [13]): 0.05985; DF norm AVERAGE OR98a (Drosophila OR98a; [14]): 0.06078 |
| COC(=O)c1ccccc1O [methyl salicylate] | 11% | 1% | 14% |  |  |  | 0.11 | 0.00759 | 0.14 | 0.1126 | 0 | 0.1364 | 3% | 1.79% | 4% |  |  |  | 0 | 0 | OR47a response (VUAA1-normalized) at 1 μM (Drosophila OR47a; OR47a cell line, VOC concentration 1 μM): 0.11; OR47a response (VUAA1-normalized) at 10 μM (Drosophila OR47a; OR47a cell line, VOC concentration 10 μM): 0.00; OR47a response (VUAA1-normalized) at 100 μM (Drosophila OR47a; OR47a cell line, VOC concentration 100 μM): 0.14; OR98a response (VUAA1-normalized) at 1 μM (Drosophila OR98a; OR98a cell line, VOC concentration 1 μM): 0.00; OR98a response (VUAA1-normalized) at 10 μM (Drosophila OR98a; OR98a cell line, VOC concentration 10 μM): 0.00; OR98a response (VUAA1-normalized) at 100 μM (Drosophila OR98a; OR98a cell line, VOC concentration 100 μM): 0.00; DF norm AVERAGE OR98a (Drosophila OR98a; [8]): 0 |
